# From patent US8507470B2, “Substituted arylamide oxazepinopyrimidone derivatives” (Sanofi, priority 2008, dated 2013)
# Structures can show the parent of a compound that is named as a salt.
# What was measured:
# [1] = biological target: GSK3β (Homo sapiens, UniProt P49841); experiment: Inhibitory activity against GSK3β (33P-ATP phosphorylation of prephosphorylated GS1 peptide); type: biochemical; details: protocol 4: commercial GSK3beta (Millipore), 7.5 μM GS1 peptide, 10 μM ATP, 90 minutes at room temperature
# Protocol: Test Example: Inhibitory Activity of the Medicament of the Present Invention against GSK3β: Four different protocols can be used. In a first protocol: 7.5 μM of prephosphorylated GS1 peptide and 10 μM ATP (containing 300,000 cpm of ^33P-ATP) were incubated in 25 mM Tris-HCl, pH 7.5, 0.6 mM DTT, 6 mM MgCl2, 0.6 mM EGTA, 0.05 mg/ml BSA buffer for 1 hour at room temperature in the presence of GSK3beta (total reaction volume: 100 microliters). In a second protocol: 4.1 μM of prephosphorylated GS1 peptide and 42 μM ATP (containing 260,000 cpm ^33P-ATP) were incubated in 80 mM Mes-NaOH, pH 6.5, 1 mM Mg acetate, 0.5 mM EGTA, 5 mM 2-mercaptoethanol, 0.02% Tween 20, 10% glycerol buffer for 2 hours at room temperature in the presence of GSK3beta. In a third protocol: 7.5 μM of prephosphorylated GS1 peptide and 10 μM ATP (containing 300,000 cpm of ^33P-ATP) were incubated in 50 mM Hepes, pH 7.2, 1 mM DTT, 1 mM MgCl2, 1 mM EGTA, 0.01% Tween 20 buffer for one hour at room temperature in the presence of GSK3beta (total reaction volume: 100 microliters). In a fourth protocol: 7.5 μM of prephosphorylated GS1 peptide and 10 μM ATP (containing 300,000 cpm of ^33P-ATP) were incubated in 50 mM Hepes, pH 7.2, 1 mM DTT, 1 mM MgCl2, 1 mM EGTA, 0.01% Tween 20 buffer for 90 minutes at room temperature in the presence of commercial GSK3beta (Millipore) (total reaction volume: 100 microliters). Inhibitors were solubilised in DMSO (final solvent concentration in the reaction medium, 1%). The reaction was stopped with 100 microliters of a solution made of 25 g polyphosphoric acid (85% P2O5), 126 ml 85% H3PO4, H2O to 500 ml and then diluted to 1:100 before use. An aliquot of the reaction mixture was then transferred to Whatman P81 cation exchange filters and rinsed with the solution described above. Incorporated ^33P radioactivity was determined by liquid scintillation spectrometry. The phosphorylated GS-1 peptide had the following sequence: NH2-[…](P)EDEE-COOH.(Woodgett, J. R. (1989) Analytical Biochemistry 180, 237-241.
# Sequence of GSK3β (P49841 whole entry): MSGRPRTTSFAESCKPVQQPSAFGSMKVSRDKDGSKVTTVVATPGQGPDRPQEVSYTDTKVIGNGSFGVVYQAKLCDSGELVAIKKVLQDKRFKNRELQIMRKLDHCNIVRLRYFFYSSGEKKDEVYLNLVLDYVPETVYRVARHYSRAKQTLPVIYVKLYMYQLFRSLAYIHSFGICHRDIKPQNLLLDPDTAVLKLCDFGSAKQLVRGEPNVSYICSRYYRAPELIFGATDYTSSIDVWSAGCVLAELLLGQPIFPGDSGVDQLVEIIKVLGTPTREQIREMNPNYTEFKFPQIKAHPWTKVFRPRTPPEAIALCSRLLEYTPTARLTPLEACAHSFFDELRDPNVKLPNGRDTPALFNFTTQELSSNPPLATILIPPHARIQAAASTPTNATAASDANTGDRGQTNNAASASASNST
SMILES,melting point [°C],IC50 [1] [nM]
"COc1ccccc1CNC1COCCn2c1nc(-c1ccncn1)cc2=O (racemic) (as salt: HCl) [compound No. 21, (+/−)-9-(2-Methoxy-benzylamino)-2-pyrimidin-4-yl-5,6,8,9-tetrahydro-7-oxa-1,4a-diaza-benzocyclohepten-4-one]",254 to 256,
"COc1ccc(S(N)(=O)=O)cc1C(=O)NC1COCCn2c1nc(-c1ccncn1)cc2=O (racemic) [compound No. 7, (+/−)-2-Methoxy-N-(4-oxo-2-pyrimidin-4-yl-5,6,8,9-tetrahydro-4H-7-oxa-1,4a-diaza-benzocyclohepten-9-yl)-5-sulfamoyl-benzamide]",257 to 259,0.5
"COc1ccc(Cl)cc1C(=O)NC1COCCn2c1nc(-c1ccncc1)cc2=O (racemic) [compound No. 19, (+/−)-5-Chloro-2-methoxy-N-(4-oxo-2-pyridin-4-yl-5,6,8,9-tetrahydro-4H-7-oxa-1,4a-diaza-benzocyclohepten-9-yl)-benzamide]",235 to 237,2

# Next, values leading:
melting point [°C],IC50 [1] [nM],SMILES
202 to 204,10,"CC(=O)Oc1ccccc1C(=O)NC1COCCn2c1nc(-c1ccncn1)cc2=O (racemic) [compound No. 14, (+/−)-Acetic acid 2-(4-oxo-2-pyrimidin-4-yl-5,6,8,9-tetrahydro-4H-7-oxa-1,4a-diaza-benzocyclohepten-9-ylcarbamoyl)-phenyl ester]"
,41,"COc1ccccc1CNC1COCCn2c1nc(-c1ccncn1)cc2=O (racemic) [compound No. 21, (+/−)-9-(2-Methoxy-benzylamino)-2-pyrimidin-4-yl-5,6,8,9-tetrahydro-7-oxa-1,4a-diaza-benzocyclohepten-4-one]"
